According to patent US7547729B2, “1,3-diphenylprop-2-en-1-one derivative compounds, preparation method thereof and uses of same” (Genfit, priority 2004, dated 2009):
One block for each compound: values may come before it.

Experiments:
LDL = test: Protection against LDL oxidation by copper (conjugated diene formation); type: biochemical; conditions: for kinetics of LDL oxidation (lag phase): FIG. 5a, no control value printed; for LDL oxidation rate: FIG. 5b, absence of compounds 2; for rate of diene formation: FIG. 2b, copper alone 2.2; for rate of LDL oxidation: FIG. 8b, absence of compounds 2.5; for diene formation rate: FIG. 4b, absence of compounds 1.9
Protocol: Unless otherwise indicated, the reagents were from Sigma (St Quentin, France). LDL were prepared according to the method described by Lebeau et al. (Lebeau, Furman et al. 2000).
The solutions of test compounds were prepared at 10^−2 M concentration in bicarbonate buffer (pH 9) and diluted in PBS to obtain final concentrations ranging from 0.1 to 100 μM
Prior to oxidation, EDTA was removed from the LDL preparation by dialysis. Oxidation then took place at 30° C. by adding 100 μl of 16.6 μM CuSO4 solution to 160 μL of LDL (125 μg protein/ml) and 20 μl of a test compound solution. The formation of dienes, the species under observation, was followed by measuring optical density at 232 nm in the samples treated with the compounds in the presence or absence of copper. Optical density at 232 nm was measured every 10 minutes for 8 hours in a thermostated spectrophotometer (Tecan Ultra 380). The analyses were performed in triplicate. The compounds were considered to have antioxidant activity when they induced a longer lag phase and reduced the rate of oxidation and the amount of dienes formed in comparison with the control sample.

PPARα = molecular target: T1, PPARα (Homo sapiens, UniProt Q07869); test: PPARα/Gal4 transactivation system in COS-7 cells; type: cell-based; conditions: 24 hours
T1 construct: expressed in transfected cells; host or cells: COS-7 cells
T1 sequence (Q07869 239-466 limits assumed): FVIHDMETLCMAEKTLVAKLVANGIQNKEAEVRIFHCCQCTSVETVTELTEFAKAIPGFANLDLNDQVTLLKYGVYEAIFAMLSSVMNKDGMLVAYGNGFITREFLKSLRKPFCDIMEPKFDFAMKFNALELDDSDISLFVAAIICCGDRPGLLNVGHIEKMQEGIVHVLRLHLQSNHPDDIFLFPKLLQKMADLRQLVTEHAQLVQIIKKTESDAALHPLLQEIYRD
Protocol: (§1) COS-7 cells were incubated with different concentrations of the inventive compounds for 24 hours. The results are expressed as the induction factor (ratio of luminescent signal obtained with the compound and that observed without the compound) after the different treatments.
(§2) PPAR activation was tested in vitro in RK13 epitheloid or COS-7 cell lines by measuring the transcriptional activity of chimeras composed of the DNA binding domain of the yeast gal4 transcription factor and the ligand binding domain of the different PPARs. These latter results were then confirmed in cell lines according to the following protocols:
(§3) RK13 cells were from ECACC (Porton Down, UK), COS-7 cells were from the ATCC (American Type Culture Collection) and were grown in DMEM medium supplemented with 10% (VN) fetal calf serum, 100 U/ml penicillin (Gibco, Paisley, UK) and 2 mM L-glutamine (Gibco, Paisley, UK). The culture medium was changed every two days. Cells were kept at 37° C. in a humidified 95% air/5% CO2 atmosphere.
(§4) The plasmids pG5TkpGL3, pRL-CMV, pGal4-hPPARα, pGal4-hPPARγ, pGal4-hPPARδ and pGal4-φ have been described by Raspe, Madsen et al. (1999). The pGal4-mPPARα, pGal4-hPPARγ and pGal4-hPPARδ constructs were obtained by cloning into the pGal4-φ vector of PCR-amplified DNA fragments corresponding to the DEF domains of the human PPARα, PPARγ and PPARδ nuclear receptors.
(§5) RK13 cells were seeded in 24-well culture dishes at 5×10^4 cells/well, COS-7 cells in 96-well culture dishes at 5×10^4 cells/well and transfected for 2 hours with the reporter plasmid pG5TkpGL3 (50 ng/well), the expression vectors pGal4-φ, pGal4-mPPARα, pGal4-hPPARα, pGal4-hPPARγ, pGal4-hPPARδ (100 ng/well) and the transfection efficiency control vector pRL-CMV (1 ng/well) according to the previously described protocol (Raspe, Madsen et al. 1999), then incubated for 36 hours with the test compounds. At the end of the experiment, the cells were lysed (Gibco, Paisley, UK) and luciferase activity was determined with a Dual-Luciferase™ Reporter Assay System kit (Promega, Madison, Wis., USA) for RK13 cells and Steady Glow Luciferase (Promega) for COS-7 cells according to the supplier's instructions as previously described. The protein content of the cell extracts was then measured with the Bio-Rad Protein Assay (Bio-Rad, Munich, Germany) as directed by the supplier.

PPARγ = molecular target: T2, PPARγ (Homo sapiens, UniProt P37231); test: PPARγ/Gal4 transactivation system in COS-7 cells; type: cell-based; conditions: 24 hours
T2 construct: expressed in transfected cells; host or cells: COS-7 cells
T2 sequence (P37231 238-503 limits assumed): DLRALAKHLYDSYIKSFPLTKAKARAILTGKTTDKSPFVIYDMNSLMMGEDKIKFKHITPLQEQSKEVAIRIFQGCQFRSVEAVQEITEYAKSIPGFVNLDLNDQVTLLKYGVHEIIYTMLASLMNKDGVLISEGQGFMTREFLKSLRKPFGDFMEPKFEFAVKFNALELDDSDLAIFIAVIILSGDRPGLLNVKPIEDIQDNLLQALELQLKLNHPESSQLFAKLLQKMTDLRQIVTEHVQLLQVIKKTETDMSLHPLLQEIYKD
Protocol: as §1, §2, §3, §4, §5

[1] = FIG. 5c, 10^−4M, absence of compounds 386
[2] = FIG. 7a, 10^−4M, absence of compounds 67.3 minutes
[3] = FIG. 2a, 10^−4M, copper alone 132 minutes
[4] = FIG. 2c, 10^−4M, copper alone 511
[5] = FIG. 8a, 10^−4M, absence of compounds 67.3 minutes
[6] = FIG. 4a, 10^−4M, copper alone 61 minutes
[7] = FIG. 4c, 10^−4M, absence of compound 370.9

SMILES: Cc1cc(C(=O)/C=C/c2cc(C)c(OC(C)(C)C(=O)O)c(C)c2)cc(C)c1OCCSC1CCCCC1 [compound 27, 1-(4-Cyclohexylthioethyloxy-3,5-dimethylphenyl)-3-(4-carboxydimethylmethyloxy-3,5-dimethylphenyl)prop-2-en-1-one]
kinetics of LDL oxidation (lag phase) (LDL; 10^−4M): 170.8 min
LDL oxidation rate (LDL; 10^−4M): 0.8 nmol/min/mg
total amount of dienes formed (LDL; [1]): 374 nmol/mg

SMILES: Cc1cc(C)c(C(=O)/C=C/c2cc(C)c(OC(C)(C)C(=O)O)c(C)c2)cc1C [compound 25, 1-(2,4,5-Trimethylphenyl)-3-(4-carboxydimethylmethyloxy-3,5-dimethylphenyl)prop-2-en-1-one]
kinetics of LDL oxidation (lag phase) (LDL; 10^−4M): 87.6 min
LDL oxidation rate (LDL; 10^−4M): 1.6 nmol/min/mg
total amount of dienes formed (LDL; [1]): 365 nmol/mg

SMILES: COc1ccc(C(=O)/C=C/c2cc(C)c(OC(C)(C)C(=O)O)c(C)c2)cc1C(F)(F)F [compound 47, 1-(4-Methoxy-3-trifluoromethylphenyl)-3-(4-carboxydimethylmethyloxy-3,5-dimethylphenyl)prop-2-en-1-one]
lag phase (LDL; [2]): 126.5 min

Induction factor (PPARα; 1 μM): 1.67
Induction factor (PPARα; 10 μM): 9.92
Induction factor (PPARγ; 1 μM): 2.00
Induction factor (PPARγ; 10 μM): 5.82
SMILES: Cc1cc(C(=O)/C=C/c2cc(C)c(OC(C)(C)C(=O)O)c(C)c2)cc(C)c1O [compound 4, 1-(4-Hydroxy-3,5-dimethylphenyl)-3-(4-carboxydimethylmethyloxy-3,5-dimethylphenyl)prop-2-ene-1-one]
lag phase (LDL; [3]): 401 min
rate of diene formation (LDL; 10^−4M): 0.2 nmol/min/mg
total amount of dienes formed (LDL; [4]): 138 nmol/mg

SMILES: Cc1cc(C(=O)/C=C/c2cc(C)c(OC(C)(C)C(=O)O)c(C)c2)cc(C)c1OCCN1CCOCC1 [compound 43, 1-(3,5-Dimethyl-4-(morpholin-4-ylethyloxy)phenyl)-3-(4-carboxydimethylmethyloxy-3,5-dimethylphenyl)prop-2-en-1-one]
lag phase (LDL; [5]): 97 min
rate of LDL oxidation (LDL; 10^−4M): 2.2 nmol/min/mg

SMILES: CCCCCCOc1c(C)cc(C(=O)/C=C/c2cc(C)c(OC(C)(C)C(=O)O)c(C)c2)cc1C [compound 19, 1-(4-Hexyloxy-3,5-dimethylphenyl)-3-(4-carboxydimethylmethyloxy-3,5-dimethylphenyl)prop-2-en-1-one]
lag phase (LDL; [6]): 92.5 min
diene formation rate (LDL; 10^−4M): 1.6 nmol/min/mg of LDL
total amount of dienes formed (LDL; [7]): 346.6 nmol/mg of LDL

Induction factor (PPARα; 0.003 μM): 1.41
Induction factor (PPARα; 0.01 μM): 1.54
Induction factor (PPARα; 0.03 μM): 2.53
Induction factor (PPARα; 0.1 μM): 7.47
Induction factor (PPARα; 0.3 μM): 15.51
Induction factor (PPARα; 1 μM): 24.33
Induction factor (PPARα; 3 μM): 23.70
Induction factor (PPARα; 10 μM): 21.03
SMILES: COc1ccc(C(=O)/C=C/c2cc(C)c(OC(C)(C)C(=O)O)c(C)c2)cc1F [compound 35, 1-(4-Methoxy-3-fluorophenyl)-3-(4-carboxydimethylmethyloxy-3,5-dimethylphenyl)prop-2-en-1-one]

Induction factor (PPARα; 0.0003 μM): 0.92
Induction factor (PPARα; 0.001 μM): 1.11
Induction factor (PPARα; 0.003 μM): 1.33
Induction factor (PPARα; 0.01 μM): 2.35
Induction factor (PPARα; 0.03 μM): 4.22
Induction factor (PPARα; 0.1 μM): 7.16
Induction factor (PPARα; 0.3 μM): 8.08
Induction factor (PPARα; 1 μM): 8.35
Induction factor (PPARα; 3 μM): 7.15
Induction factor (PPARγ; 0.0003 μM): 1.02
Induction factor (PPARγ; 0.001 μM): 1.43
Induction factor (PPARγ; 0.003 μM): 2.86
Induction factor (PPARγ; 0.01 μM): 3.48
Induction factor (PPARγ; 0.03 μM): 5.04
Induction factor (PPARγ; 0.1 μM): 6.17
Induction factor (PPARγ; 0.3 μM): 6.84
Induction factor (PPARγ; 1 μM): 7.24
Induction factor (PPARγ; 3 μM): 6.98
SMILES: Cc1cc(/C=C/C(=O)c2ccc(OCCSC3CCCCC3)cc2)cc(C)c1OC(C)(C)C(=O)O [compound 23, 1-(4-Cyclohexylthioethyloxyphenyl)-3-(4-carboxydimethylmethyloxy-3,5-dimethylphenyl)prop-2-en-1-one]
lag phase (LDL; [6]): 96.4 min
diene formation rate (LDL; 10^−4M): 1.3 nmol/min/mg of LDL
total amount of dienes formed (LDL; [7]): 340.3 nmol/mg of LDL

Induction factor (PPARα; 1 μM): 15.67
Induction factor (PPARα; 10 μM): 12.66
Induction factor (PPARγ; 1 μM): 2.13
Induction factor (PPARγ; 10 μM): 2.74
SMILES: CSc1ccc(C(=O)/C=C/c2cc(Br)c(OC(C)(C)C(=O)O)c(Br)c2)cc1 [compound 8, 1-(4-Methylthiophenyl)-3-(4-carboxydimethylmethyloxy-3,5-dibromophenyl)prop-2-ene-1-one]
lag phase (LDL; [3]): 169 min
rate of diene formation (LDL; 10^−4M): 1.7 nmol/min/mg
total amount of dienes formed (LDL; [4]): 474 nmol/mg

SMILES: Cc1cc(/C=C/C(=O)c2ccc(OCCC3CCCCC3)cc2)cc(C)c1OC(C)(C)C(=O)O [compound 11, 1-(4-Cyclohexylethyloxyphenyl)-3-(4-carboxydimethylmethyloxy-3,5-dimethylphenyl)prop-2-en-1-one]
lag phase (maximum) (LDL; FIG. 3a, 3.3×10^−5M, absence of compound 87.2 minutes): 210 min
lag phase (LDL; FIG. 3a, 10^−6 M, absence of compound 87.2 minutes): 101.5 min

Induction factor (PPARα; 0.01 μM): 1.54
Induction factor (PPARα; 0.03 μM): 2.54
Induction factor (PPARα; 0.1 μM): 7.89
Induction factor (PPARα; 0.3 μM): 17.25
Induction factor (PPARα; 1 μM): 19.77
Induction factor (PPARα; 3 μM): 16.89
SMILES: COc1ccc(C(=O)/C=C/c2cc(C)c(OC(C)(C)C(=O)O)c(C)c2)cc1C [compound 37, 1-(4-Methoxy-3-methylphenyl)-3-(4-carboxydimethylmethyloxy-3,5-dimethylphenyl)prop-2-en-1-one]
lag phase (LDL; FIG. 6a, 10^−4M, absence of compound 56 minutes): 106 min
oxidation rate (LDL; FIG. 6b, 10^−4M, absence of compound 2): 1.8 nmol/min/mg of LDL
total amount of dienes formed (LDL; FIG. 6c, 10^−4M, absence of compound 360.0): 326.9 nmol/mg of LDL

SMILES: COc1c(C)cc(C(=O)/C=C/c2cc(C)c(OC(C)(C)C(=O)O)c(C)c2)cc1C [compound 17, 1-(4-Methoxy-3,5-dimethylphenyl)-3-(4-carboxydimethylmethyloxy-3,5-dimethylphenyl)prop-2-en-1-one]
lag phase (LDL; [5]): 148 min
rate of LDL oxidation (LDL; 10^−4M): 1.8 nmol/min/mg

SMILES: COc1ccc(OC)c(C(=O)/C=C/c2cc(C)c(OC(C)(C)C(=O)O)c(C)c2)c1 [compound 41, 1-(2,5-Dimethoxyphenyl)-3-(4-carboxydimethylmethyloxy-3,5-dimethylphenyl)prop-2-en-1-one]
lag phase (LDL; [2]): 100 min
total amount of dienes formed (LDL; FIG. 7c, 10^−4M, absence of compounds 432.5): 403 nmol/mg of LDL
